Source: patent US20190105367A1, “ANTIMICROBIAL 4-OXOQUINOLIZINES” (Emergent Product Development Gaithersburg Inc., priority 2011, published 2019)

Columns and labels:
A. baumannii A387 [1] = assay: Preliminary MBC without and with sub-inhibitory polymyxin B (Example 4); format: cell-based, Acinetobacter baumannii; settings: for MBC: 2nd experiment
A. baumannii A390 [2] = assay: MIC without and with sub-inhibitory polymyxin B (Example 4); format: cell-based, Acinetobacter baumannii; settings: A. baumannii A390
A. baumannii A401 [3] = assay: Preliminary MBC without and with sub-inhibitory polymyxin B (Example 4); format: cell-based, Acinetobacter baumannii; settings: for MBC: 2nd experiment
A. baumannii A387 [4] = assay: MIC without and with sub-inhibitory polymyxin B (Example 4); format: cell-based, Acinetobacter baumannii; settings: A. baumannii A387
A. baumannii A401 [5] = assay: as above; format: cell-based, Acinetobacter baumannii; settings: A baumannii A 401; for MIC: 2nd experiment
A. baumannii A329 [6] = assay: Preliminary MBC without and with sub-inhibitory polymyxin B (Example 4); format: cell-based, Acinetobacter baumannii; settings: for MBC: 2nd experiment
A. baumannii A473 [7] = assay: MIC without and with sub-inhibitory polymyxin B (Example 4); format: cell-based, Acinetobacter baumannii; settings: A. baumannii A473
A. baumannii A473 [8] = assay: Preliminary MBC without and with sub-inhibitory polymyxin B (Example 4); format: cell-based, Acinetobacter baumannii; settings: for MBC: 2nd experiment
Outline: (§1)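 Incubation 18-20 h, 37° C. MBC = lowest conc. with ~90% fewer colonies than positive control (single/no colonies).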

A. baumannii A390 [9] = assay: as above; format: cell-based, Acinetobacter baumannii; settings: for MBC: 2nd experiment
Outline: as §1

A. baumannii NCTC 13301 [10] = assay: as above; format: cell-based, Acinetobacter baumannii; settings: A. baumannii NCTC 13301, preliminary MBC; for MBC: 2nd experiment
Outline: as §1

A. baumannii A14 [11] = assay: as above; format: cell-based, Acinetobacter baumannii; settings: 2nd experiment
Outline: as §1

A. baumannii A489 = assay: as above; format: cell-based, Acinetobacter baumannii; settings: A. baumannii A489, preliminary MBC; for MBC: 2nd experiment
A. baumannii A14 [12] = assay: as above; format: cell-based, Acinetobacter baumannii; settings: A. baumannii A14, preliminary MBC, 1st experiment
A. baumannii J2 = assay: MIC without and with sub-inhibitory polymyxin B (Example 4); format: cell-based, Acinetobacter baumannii; settings: A. baumannii J2
A. baumannii NCTC 13301 [13] = assay: as above; format: cell-based, Acinetobacter baumannii; settings: A. baumannii NCTC 13301, 1st experiment
A. baumannii A472 [14] = assay: Preliminary MBC without and with sub-inhibitory polymyxin B (Example 4); format: cell-based, Acinetobacter baumannii; settings: A. baumannii A472, preliminary MBC; for MBC: 2nd experiment
[15] = system: Acinetobacter sp. (H064200250); assay: MIC without and with sub-inhibitory polymyxin B (Example 4); format: cell-based
A. baumannii A472 [16] = assay: as above; format: cell-based, Acinetobacter baumannii; settings: A. baumannii A472; for MIC: 2nd experiment
A. baumannii ATCC 19606 = assay: as above; format: cell-based, Acinetobacter baumannii; settings: A. baumannii ATCC 19606
A. baumannii NCTC 13301 [17] = assay: as above; format: cell-based, Acinetobacter baumannii; settings: A. baumannii NCTC 13301, 2nd experiment
A. baumannii A14 [18] = assay: as above; format: cell-based, Acinetobacter baumannii; settings: 1st experiment
A. baumannii A14 [19] = assay: as above; format: cell-based, Acinetobacter baumannii; settings: A. baumannii A14, 2nd experiment
A. baumannii A329 [20] = assay: as above; format: cell-based, Acinetobacter baumannii; settings: A. baumannii A329
[21] = without polymyxin B, 1st experiment
[22] = +0.06 μg/ml polymyxin B, 1st experiment
[23] = ratio, PB 0.06 μg/ml, 1st experiment
[24] = +[…] polymyxin B, 1st experiment
[25] = Acinetobacter spp. H064200250 (OXA51), +[…] PB, 2nd experiment

Substance: Polymyxin B [reference compound]
- MBC (A. baumannii A387 [1]; A. baumannii A387, +0.06 μg/ml PB): 0.25 µg/mL
- MBC +0.06 μg/ml PB (A. baumannii A387 [1]; A. baumannii A387, +0.06 μg/ml polymyxin B, 1st experiment): 0.25 µg/mL
- MBC (A. baumannii A387 [1]; A. baumannii A387, without PB): 0.25 µg/mL
- MBC without PB (A. baumannii A387 [1]; A. baumannii A387, without polymyxin B, 1st experiment): 0.25 µg/mL
- MIC (A. baumannii A390 [2]; +0.06 μg/ml PB, 2nd experiment): ≤0.125 µg/mL
- MIC without PB/MIC + PB (A. baumannii A390 [2]; +0.06 μg/ml PB, 2nd experiment): ≥2
- MIC (A. baumannii A390 [2]; without PB, 2nd experiment): 0.25 µg/mL
- MIC without PB (A. baumannii A390 [2]; [21]): 0.25 µg/mL
- MBC (A. baumannii A401 [3]; A baumannii A 401, +0.06 μg/ml PB): 0.25 µg/mL
- MBC +0.06 μg/ml PB (A. baumannii A401 [3]; A baumannii A 401, +0.06 μg/ml polymyxin B, 1st experiment): 0.5 µg/mL
- MBC (A. baumannii A401 [3]; A baumannii A 401, without PB): 0.5 µg/mL
- MBC without PB (A. baumannii A401 [3]; A baumannii A 401, without polymyxin B, 1st experiment): 1 µg/mL
- MIC (A. baumannii A387 [4]; +0.06 μg/ml PB, 2nd experiment): ≤ 0.125 µg/mL
- MIC without PB/MIC + PB (A. baumannii A387 [4]; +0.06 μg/ml PB, 2nd experiment): ≥2
- MIC read with alamar blue (A. baumannii A387 [4]; +0.06 μg/ml PB, value in parentheses, 2nd experiment): 0.25 µg/mL
- MIC +0.06 μg/ml PB (A. baumannii A387 [4]; [22]): 0.25 µg/mL
- MIC without PB/MIC + PB (A. baumannii A387 [4]; [23]): 1
- MIC (A. baumannii A387 [4]; without PB, 2nd experiment): 0.25 µg/mL
- MIC without PB (A. baumannii A387 [4]; [21]): 0.25 µg/mL
- MIC (A. baumannii A401 [5]; +0.06 μg/ml PB): 0.25 µg/mL
- MIC +0.06 μg/ml PB (A. baumannii A401 [5]; [22]): 0.5 µg/mL
- MIC without PB/MIC + PB (A. baumannii A401 [5]; [23]): 2
- MIC (A. baumannii A401 [5]; without PB): 0.5 µg/mL
- MIC without PB (A. baumannii A401 [5]; [21]): 1 µg/mL
- MBC (A. baumannii A329 [6]; A. baumannii A329, +0.06 μg/ml PB): 0.25 µg/mL
- MBC (A. baumannii A329 [6]; A. baumannii A329, without PB): 0.25 µg/mL
- MBC without PB (A. baumannii A329 [6]; A. baumannii A329, without polymyxin B, 1st experiment): 0.5 µg/mL
- MIC (A. baumannii A473 [7]; +0.06 μg/ml PB, 2nd experiment): 0.25 µg/mL
- MIC without PB/MIC + PB (A. baumannii A473 [7]; +0.06 μg/ml PB, 2nd experiment): 1
- MIC (A. baumannii A473 [7]; without PB, 2nd experiment): 0.25 µg/mL
- MIC read with alamar blue (A. baumannii A473 [7]; without PB, value in parentheses, 2nd experiment): 2 µg/mL
- MIC without PB (A. baumannii A473 [7]; [21]): 1 µg/mL
- MBC (A. baumannii A473 [8]; A. baumannii A473, +0.06 μg/ml PB): 0.25 µg/mL
- MBC (A. baumannii A473 [8]; A. baumannii A473, without PB): 0.25 µg/mL
- MBC without PB (A. baumannii A473 [8]; A. baumannii A473, without polymyxin B, 1st experiment): 1 µg/mL
- MBC (A. baumannii A390 [9]; A. baumannii A390, +0.06 μg/ml PB): ≤0.125 µg/mL
- MBC (A. baumannii A390 [9]; A. baumannii A390, without PB): 0.25 µg/mL
- MBC without PB (A. baumannii A390 [9]; A. baumannii A390, without polymyxin B, 1st experiment): 0.25 µg/mL
- MBC (A. baumannii NCTC 13301 [10]; +[…] PB): ≤0.125 µg/mL
- MBC +[…] PB (A. baumannii NCTC 13301 [10]; [24]): 0.5 µg/mL
- MBC (A. baumannii NCTC 13301 [10]; without PB): 0.25 µg/mL
- MBC without PB (A. baumannii NCTC 13301 [10]; [21]): 0.5 µg/mL
- MBC (A. baumannii A14 [11]; A. baumannii A14, +0.06 μg/ml PB): 0.25 µg/mL
- MBC (A. baumannii A14 [11]; A. baumannii A14, without PB): 0.25 µg/mL
- MBC (A. baumannii A489; +[…] PB): 0.25 µg/mL
- MBC +[…] PB (A. baumannii A489; [24]): 1 µg/mL
- MBC (A. baumannii A489; without PB): 0.5 µg/mL
- MBC without PB (A. baumannii A489; [21]): 2 µg/mL
- MBC +0.06 μg/ml PB (A. baumannii A14 [12]; +0.06 μg/ml polymyxin B): 0.5 µg/mL
- MBC without PB (A. baumannii A14 [12]; without polymyxin B): 0.5 µg/mL
- MIC (A. baumannii J2; +[…] PB, 2nd experiment): ≤0.125 µg/mL
- MIC without PB/MIC + PB (A. baumannii J2; +[…] PB, 2nd experiment): ≥4
- MIC +[…] PB (A. baumannii J2; [24]): 0.5 µg/mL
- MIC without PB/MIC + PB (A. baumannii J2; ratio, PB […], 1st experiment): 1
- MIC (A. baumannii J2; without PB, 2nd experiment): 0.5 µg/mL
- MIC without PB (A. baumannii J2; [21]): 0.5 µg/mL
- MIC +[…] PB (A. baumannii NCTC 13301 [13]; +[…] polymyxin B): 1 µg/mL
- MIC without PB/MIC + PB (A. baumannii NCTC 13301 [13]; ratio, PB […]): 0.5
- MIC without PB (A. baumannii NCTC 13301 [13]; without polymyxin B): 0.5 µg/mL
- MBC (A. baumannii A472 [14]; +[…] PB): 0.25 µg/mL
- MBC +[…] PB (A. baumannii A472 [14]; [24]): ≤0.125 µg/mL
- MBC (A. baumannii A472 [14]; without PB): 0.5 µg/mL
- MBC without PB (A. baumannii A472 [14]; [21]): 0.5 µg/mL
- MIC [15, 25]: 0.25 µg/mL
- MIC without PB/MIC + PB [15, 25]: 1
- MIC ([15]; Acinetobacter spp. H064200250 (OXA51), without PB, 2nd experiment): 0.25 µg/mL
- MIC +[…] PB ([15]; Acinetobacter spp. H064200250, +[…] polymyxin B, 1st experiment): 0.25 µg/mL
- MIC without PB/MIC + PB ([15]; Acinetobacter spp. H064200250, ratio, PB […], 1st experiment): 2
- MIC without PB ([15]; Acinetobacter spp. H064200250, without polymyxin B, 1st experiment): 0.5 µg/mL
- MIC (A. baumannii A472 [16]; +[…] PB): 0.25 µg/mL
- MIC +[…] PB (A. baumannii A472 [16]; [24]): ≤0.125 µg/mL
- MIC without PB/MIC + PB (A. baumannii A472 [16]; ratio, PB […], 1st experiment): ≥4
- MIC (A. baumannii A472 [16]; without PB): 0.5 µg/mL
- MIC without PB (A. baumannii A472 [16]; [21]): 0.5 µg/mL
- MIC (A. baumannii ATCC 19606; +0.06 μg/ml PB, 2nd experiment): 0.25 µg/mL
- MIC without PB/MIC + PB (A. baumannii ATCC 19606; +0.06 μg/ml PB, 2nd experiment): 2
- MIC +0.06 μg/ml PB (A. baumannii ATCC 19606; [22]): 0.5 µg/mL
- MIC without PB/MIC + PB (A. baumannii ATCC 19606; [23]): 1
- MIC (A. baumannii ATCC 19606; without PB, 2nd experiment): 0.5 µg/mL
- MIC without PB (A. baumannii ATCC 19606; [21]): 0.5 µg/mL
- MIC (A. baumannii NCTC 13301 [17]; +[…] PB): ≤ 0.125 µg/mL
- MIC without PB/MIC + PB (A. baumannii NCTC 13301 [17]; +[…] PB): ≥2
- MIC (A. baumannii NCTC 13301 [17]; +[…] PB, value in parentheses marked *, mark not explained): 0.25 µg/mL
- MIC (A. baumannii NCTC 13301 [17]; without PB): 0.25 µg/mL
- MIC +0.06 μg/ml PB (A. baumannii A14 [18]; +0.06 μg/ml polymyxin B): 0.5 µg/mL
- MIC without PB/MIC + PB (A. baumannii A14 [18]; ratio, PB 0.06 μg/ml): 1
- MIC without PB (A. baumannii A14 [18]; without polymyxin B): 0.5 µg/mL
- MIC (A. baumannii A14 [19]; +0.06 μg/ml PB): 0.25 µg/mL
- MIC without PB/MIC + PB (A. baumannii A14 [19]; +0.06 μg/ml PB): 1
- MIC (A. baumannii A14 [19]; without PB): 0.25 µg/mL
- MIC (A. baumannii A329 [20]; +0.06 μg/ml PB, 2nd experiment): 0.25 µg/mL
- MIC without PB/MIC + PB (A. baumannii A329 [20]; +0.06 μg/ml PB, 2nd experiment): 1
- MIC (A. baumannii A329 [20]; without PB, 2nd experiment): 0.25 µg/mL
- MIC without PB (A. baumannii A329 [20]; [21]): 0.5 µg/mL
